Measurements published in paper PMC8944975, “Secretin Receptor as a Target in Gastrointestinal Cancer: Expression Analysis and Ligand Development” (Biomedicines, 2022).
Where a SMILES comes first, the peptide text is derived from it. [ ]: non-standard residue; d: D form.

Experiments:
human SCTR [1] = biological target: T1, human SCTR (Homo sapiens, UniProt P47872); experiment: β-arr2-GFP translocation assay run in antagonist mode; format: cell-based; parameters: expressed in transfected cells; host or cells: U2OS (human osteosarcoma), stably co-transfected with β-arrestin2-GFP; details: read-out: IC50, inhibition of β-arr2-GFP translocation (Table 3); note: peptide 5 min at 37 °C
From the text: (§1) U2OS-SCTR/β-arr2-GFP: human osteosarcoma cell line U2OS (purchased from ATCC/LGC Standards, Wesel, Germany) were stably transfected with plasmids encoding SCTR (Homo sapiens) and the fusion protein β-arrestin2-green fluorescent protein (GFP) (Rattus norvegicus-Aequorea victoria) (β-arr2-GFP).
For analysis of antagonistic effects on SCTR, a slightly modified protocol of the β-arr2-GFP translocation was used. […] For analysis, cells were terminally fixed and permeabilized as previously described. The additional monitoring of IDCC fluorescence in the near-infrared channel (667 nm) provided another measure for receptor binding and activation.

human SCTR [2] = biological target: T1, human SCTR; experiment: agonist-induced β-arr2-GFP translocation; format: cell-based; parameters: expressed in transfected cells; host or cells: U2OS (human osteosarcoma), stably co-transfected with β-arrestin2-GFP; details: Supplementary Tables S1 and S2, decimal comma, '-' not detectable (Figure 4); for β-arrestin2-GFP agonism efficacy: % of wild-type secretin; for EC50: U2OS-SCTR/β-arr2-GFP cells, 20 min at 37 °C, mean of at least three independent experiments in duplicates, read-out: β-arrestin2-GFP agonism potency
From the text: as §1
To evaluate reactivity of human SCTR exposed to different ligand variants, intracellular translocation of a fusion protein of β-arrestin2 and green fluorescent protein was utilized. For evaluation of activation, receptor-mediated recruitment of cytoplasmic β-arr2-GFP was monitored through its translocation into condensed intracellular vesicles. The extent of translocation events was quantified by determining the increasing granularization of the intracellular fluorescence utilizing an automated high-throughput microscope in combination with computational algorithms to estimate potency (EC50) and efficacy, thus characterizing ligand-SCTR interaction. U2OS-SCTR/β-arr2-GFP cells were seeded in 96-well cell culture plates to 60–80% confluence. On the following day, preceding stimulation, cells were incubated for one hour in serum-free medium. Ligand variants were applied as serial dilutions in assay buffer C1. After preincubation, supernatant was discarded by tapping plates overhead repeatedly. For stimulation, 50 µL of ligand dilution was applied per well in duplicates and incubated for 20 min at 37 °C. Successively, cells were fixed by applying 4% buffered formaldehyde (Herbeta Arzneimittel, Berlin, Germany) for 10 min at room temperature and consecutively permeabilized for 10 min at room temperature with 0.1% TritonX-100 in PBS, containing DAPI (4′,6-Diamidin-2-phenylindol, SigmaAldrich, Deisenhofen, Germany, 1 µg/mL) to counterstain nuclei. Microscopic images were recorded by an IN Cell Analyzer 1000 (GE Healthcare, Reading, UK) with 20× magnification at 5 frames per well in a 96-well format. Image processing was performed with IN Cell Investigator software (GE Healthcare, Reading, UK), applying the provided granularity algorithm. The output of the analysis was indicated as vesicle area/cell and was utilized for calculation of concentration–response curves. Parameters derived from curve fitting included the concentration of half-maximal activity (EC50), and intrinsic activity. Intrinsic activity was normalized defining reaction to non-modified wild type secretin as the 100% curve maximum value.

T1 sequence (P47872 23-440): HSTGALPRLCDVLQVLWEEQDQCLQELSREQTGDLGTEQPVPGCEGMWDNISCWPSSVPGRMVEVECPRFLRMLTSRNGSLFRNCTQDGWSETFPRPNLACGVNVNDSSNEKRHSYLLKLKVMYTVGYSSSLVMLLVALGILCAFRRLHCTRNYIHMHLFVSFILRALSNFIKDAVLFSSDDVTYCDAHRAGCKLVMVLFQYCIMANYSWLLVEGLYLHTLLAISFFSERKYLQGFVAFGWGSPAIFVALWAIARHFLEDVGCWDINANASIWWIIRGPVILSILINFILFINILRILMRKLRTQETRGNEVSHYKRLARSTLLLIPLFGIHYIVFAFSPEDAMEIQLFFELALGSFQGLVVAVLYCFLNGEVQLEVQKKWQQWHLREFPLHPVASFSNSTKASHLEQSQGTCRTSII

IC50 (human SCTR [1]) [nM] | β-arrestin2-GFP agonism efficacy (human SCTR [2]) | EC50 (human SCTR [2]) [nM] | Compound
1490 ± 218 | – | – | CC(C)C[C@H](NC(=O)CNC(=O)[C@H](CCC(N)=O)NC(=O)[C@H](CC(C)C)NC(=O)[C@H](CC(C)C)NC(=O)[C@H](C)NC(=O)[C@H](CCC(N)=O)NC(=O)[C@H](CC(C)C)NC(=O)[C@H](CCCNC(=N)N)NC(=O)[C@H](C)NC(=O)CNC(=O)[C@H](CCC(=O)O)NC(=O)[C@H](CCCNC(=N)N)NC(=O)[C@H](CC(C)C)NC(=O)[C@H](CCCNC(=N)N)NC(=O)[C@H](CO)NC(=O)[C@H](CC(C)C)NC(=O)[C@H](CCC(=O)O)NC(=O)[C@H](CO)NC(=O)[C@@H](NC(=O)[C@H](Cc1ccccc1)NC(=O)[C@H](N)CCCNC(=N)N)[C@@H](C)O)C(=O)N[C@H](C(=O)O)C(C)C [Peptide 140] (H-[dR]FTSELSRLREGARLQALLQGLV-OH)
1760 ± 322 | – | – | CC(C)C[C@H](NC(=O)CNC(=O)[C@H](CCC(N)=O)NC(=O)[C@H](CC(C)C)NC(=O)[C@H](CC(C)C)NC(=O)[C@H](CCCNC(=N)N)NC(=O)[C@H](CCC(N)=O)NC(=O)[C@H](CC(C)C)NC(=O)[C@H](CCCNC(=N)N)NC(=O)[C@H](C)NC(=O)CNC(=O)[C@H](CCC(=O)O)NC(=O)[C@H](CCCNC(=N)N)NC(=O)[C@H](CC(C)C)NC(=O)[C@H](CCCNC(=N)N)NC(=O)[C@H](CO)NC(=O)[C@H](CC(C)C)NC(=O)[C@H](CCC(=O)O)NC(=O)[C@H](CO)NC(=O)[C@@H](NC(=O)[C@H](C)NC(=O)[C@H](N)CCCNC(=N)N)[C@@H](C)O)C(=O)N[C@H](C(=O)O)C(C)C [Peptide 126]
1580 ± 77 | – | – | CC(C)C[C@H](NC(=O)CNC(=O)[C@H](CCC(N)=O)NC(=O)[C@H](CC(C)C)NC(=O)[C@H](CC(C)C)NC(=O)[C@H](CCCNC(=N)N)NC(=O)[C@H](CCC(N)=O)NC(=O)[C@H](CC(C)C)NC(=O)[C@H](CCCNC(=N)N)NC(=O)[C@H](C)NC(=O)CNC(=O)[C@H](CCC(=O)O)NC(=O)[C@H](C)NC(=O)[C@H](CC(C)C)NC(=O)[C@H](CCCNC(=N)N)NC(=O)[C@H](CO)NC(=O)[C@H](CC(C)C)NC(=O)[C@H](CCC(=O)O)NC(=O)[C@H](CO)NC(=O)[C@@H](NC(=O)[C@H](Cc1ccccc1)NC(=O)[C@H](N)CCCNC(=N)N)[C@@H](C)O)C(=O)N[C@H](C(=O)O)C(C)C [Peptide 134] (H-[dR]FTSELSRLAEGARLQRLLQGLV-OH)
– | 104,77 % Sec | 2.26 | CC(C)C[C@H](NC(=O)CNC(=O)[C@H](CCC(N)=O)NC(=O)[C@H](CC(C)C)NC(=O)[C@H](CC(C)C)NC(=O)[C@H](CCCNC(=N)N)NC(=O)[C@H](CCC(N)=O)NC(=O)[C@H](CC(C)C)NC(=O)[C@H](CCCNC(=N)N)NC(=O)[C@H](CCC(=O)O)NC(=O)CNC(=O)[C@H](CCC(=O)O)NC(=O)[C@H](CCCNC(=N)N)NC(=O)[C@H](CC(C)C)NC(=O)[C@H](CCCNC(=N)N)NC(=O)[C@H](CO)NC(=O)[C@H](CC(C)C)NC(=O)[C@H](CCC(=O)O)NC(=O)[C@H](CO)NC(=O)[C@@H](NC(=O)[C@H](Cc1ccccc1)NC(=O)[C@@H](NC(=O)CNC(=O)[C@H](CC(=O)O)NC(=O)[C@H](CO)NC(=O)[C@@H](N)Cc1c[nH]cn1)[C@@H](C)O)[C@@H](C)O)C(=O)N[C@H](C(=O)O)C(C)C [Peptide 70]
– | 98,33 % Sec | – | HSDGTFtSELSRLREGARLQRLLQGLV [Peptide 91, D-amino acid substitution variant of human secretin]
– | 102,97 % Sec | – | CC(C)C[C@H](NC(=O)CNC(=O)[C@H](CCC(N)=O)NC(=O)[C@H](CC(C)C)NC(=O)[C@H](CC(C)C)NC(=O)[C@H](CCCNC(=N)N)NC(=O)[C@H](CCC(N)=O)NC(=O)[C@H](CC(C)C)NC(=O)[C@H](CCCNC(=N)N)NC(=O)[C@H](C)NC(=O)CNC(=O)[C@H](CCC(=O)O)NC(=O)[C@H](CCCNC(=N)N)NC(=O)[C@H](CC(C)C)NC(=O)[C@H](CCCNC(=N)N)NC(=O)[C@H](CO)NC(=O)[C@H](CC(C)C)NC(=O)[C@H](CCC(=O)O)NC(=O)[C@H](CO)NC(=O)[C@@H](NC(=O)[C@H](Cc1ccccc1)NC(=O)[C@H](NC(=O)CNC(=O)[C@H](CC(=O)O)NC(=O)[C@H](CO)NC(=O)[C@@H](N)Cc1c[nH]cn1)[C@H](C)O)[C@@H](C)O)C(=O)N[C@H](C(=O)O)C(C)C [Peptide 89]
– | 107,20 % Sec | – | CC(C)C[C@H](NC(=O)CNC(=O)[C@H](CCC(N)=O)NC(=O)[C@H](CC(C)C)NC(=O)[C@H](CC(C)C)NC(=O)[C@H](CCCNC(=N)N)NC(=O)[C@H](CCC(N)=O)NC(=O)[C@H](CC(C)C)NC(=O)[C@H](CCCNC(=N)N)NC(=O)[C@H](C)NC(=O)CNC(=O)[C@H](CCC(=O)O)NC(=O)[C@H](CCCNC(=N)N)NC(=O)[C@H](CC(C)C)NC(=O)[C@H](CCCNC(=N)N)NC(=O)[C@H](CO)NC(=O)[C@H](CC(C)C)NC(=O)[C@H](CCC(=O)O)NC(=O)[C@H](CO)NC(=O)[C@@H](NC(=O)[C@H](Cc1ccccc1)NC(=O)[C@@H](NC(=O)CNC(=O)[C@H](CC(=O)O)NC(=O)[C@H](CO)NC(=O)[C@H](N)Cc1c[nH]cn1)[C@@H](C)O)[C@@H](C)O)C(=O)N[C@H](C(=O)O)C(C)C [Peptide 86]
– | 111,23 % Sec | 4.52 | CC(C)C[C@H](NC(=O)CNC(=O)[C@H](CCC(N)=O)NC(=O)[C@H](CC(C)C)NC(=O)[C@H](CC(C)C)NC(=O)[C@H](CCCNC(=N)N)NC(=O)[C@H](CCC(N)=O)NC(=O)[C@H](CC(C)C)NC(=O)[C@H](CCCNC(=N)N)NC(=O)[C@H](C)NC(=O)CNC(=O)[C@H](CC(=O)O)NC(=O)[C@H](CCCNC(=N)N)NC(=O)[C@H](CC(C)C)NC(=O)[C@H](CCCNC(=N)N)NC(=O)[C@H](CO)NC(=O)[C@H](CC(C)C)NC(=O)[C@H](CCC(=O)O)NC(=O)[C@H](CO)NC(=O)[C@@H](NC(=O)[C@H](Cc1ccccc1)NC(=O)[C@@H](NC(=O)CNC(=O)[C@H](CC(=O)O)NC(=O)[C@H](CO)NC(=O)[C@@H](N)Cc1c[nH]cn1)[C@@H](C)O)[C@@H](C)O)C(=O)N[C@H](C(=O)O)C(C)C [Peptide 69]
– | 90,37 % Sec | – | HSDGTFTsELSRLREGARLQRLLQGLV [Peptide 92, D-amino acid substitution variant of human secretin]
– | 104,60 % Sec | 3.32 | CC(C)C[C@H](NC(=O)CNC(=O)[C@H](CCC(N)=O)NC(=O)[C@H](CC(C)C)NC(=O)[C@H](CC(C)C)NC(=O)[C@H](CCCNC(=N)N)NC(=O)[C@H](CCC(N)=O)NC(=O)[C@H](CC(C)C)NC(=O)[C@H](CCCNC(=N)N)NC(=O)[C@H](C)NC(=O)[C@H](CC(C)C)NC(=O)[C@H](CCC(=O)O)NC(=O)[C@H](CCCNC(=N)N)NC(=O)[C@H](CC(C)C)NC(=O)[C@H](CCCNC(=N)N)NC(=O)[C@H](CO)NC(=O)[C@H](CC(C)C)NC(=O)[C@H](CCC(=O)O)NC(=O)[C@H](CO)NC(=O)[C@@H](NC(=O)[C@H](Cc1ccccc1)NC(=O)[C@@H](NC(=O)CNC(=O)[C@H](CC(=O)O)NC(=O)[C@H](CO)NC(=O)[C@@H](N)Cc1c[nH]cn1)[C@@H](C)O)[C@@H](C)O)C(=O)N[C@H](C(=O)O)C(C)C [Peptide 72]
